Measured values taken from US8518917B2, “2-methylene-19-nor-vitamin D analogs and their uses” (Wisconsin Alumni Research Foundation, priority 2009, dated 2013).
Like-named read-outs stand apart in the source and are kept apart here.

Key:
[1] = test system: Human promyelocytic leukemia (HL60) cells; test: HL-60 cell differentiation (nitro blue tetrazolium reduction); type: cell-based; details: four days treatment, read-out: EC50, promotion of HL60 differentiation
Method: The study drugs were dissolved in ethanol and the concentrations determined using UV spectrophotometry. Serial dilutions were prepared so that a range of drug concentrations could be tested without changing the final concentration of ethanol (≦0.2%) present in the cell cultures.
Human promyelocytic leukemia (HL60) cells were grown in RPMI-1640 medium containing 10% fetal bovine serum. The cells were incubated at 37° C. in the presence of 5% CO2.
HL60 cells were plated at 1.2×10^5 cells/ml. Eighteen hours after plating, cells in duplicate were treated with drug. Four days later, the cells were harvested and a nitro blue tetrazolium reduction assay was performed (Collins et al., 1979; J. Exp. Med. 149:969-974). The percentage of differentiated cells was determined by counting a total of 200 cells and recording the number that contained intracellular black-blue formazan deposits. Verification of differentiation to monocytic cells was determined by measuring phagocytic activity (data not shown).

[2] = test system: 24-hydroxylase (24Ohase) gene promoter; test: In vitro transcription assay, luciferase reporter in ROS 17/2.8 (bone) cells; type: cell-based; details: FIG. 3; for EC50: ROS 17/2.8 cells, sixteen hours after dosing, read-out: EC50, transcriptional activity in bone cells (24-hydroxylase gene)
Method: Transcription activity was measured in ROS 17/2.8 (bone) cells that were stably transfected with a 24-hydroxylase (24Ohase) gene promoter upstream of a luciferase reporter gene (Arbour et al., 1998). Cells were given a range of doses. Sixteen hours after dosing the cells were harvested and luciferase activities were measured using a luminometer. RLU=relative luciferase units.

[3] = test system: vitamin D-deficient rats; test: Bone calcium mobilization (serum calcium); type: in vivo, rat
Method: (§1) Male, weanling Sprague-Dawley rats were placed on Diet 11 (Suda et al, J. Nutr. 100:1049, 1970) (0.47% Ca)+vitamins AEK for one week followed by Diet 11 (0.02% Ca)+vitamins AEK for 3 weeks. The rats were then switched to the same diet containing 0.47% Ca for one week followed by two weeks on the same diet containing 0.02% Ca. Dose administration began during the last week on 0.02% calcium diet. Four consecutive ip doses were given approximately 24 hours apart. Twenty-four hours after the last dose, blood was collected from the severed neck and the concentration of serum calcium determined by atomic absorption spectrometry as a measure of bone calcium mobilization. The first 10 cm of the intestine was also collected for intestinal calcium transport analysis using the everted gut sac method.

[4] = target: T1, full-length recombinant rat vitamin D receptor (Rattus norvegicus, UniProt P13053); test: Vitamin D receptor competitive binding with [3H]-1,25(OH)2D3; details: read-out: Ki, competition with [3H]-1,25(OH)2D3 for binding to vitamin D receptor
T1 construct: Full-length recombinant rat receptor was expressed in E. coli; histidine tag (C); made in house; host or cells: E. coli BL21 (DE3) Codon Plus RIL
T1 sequence (P13053 1-423): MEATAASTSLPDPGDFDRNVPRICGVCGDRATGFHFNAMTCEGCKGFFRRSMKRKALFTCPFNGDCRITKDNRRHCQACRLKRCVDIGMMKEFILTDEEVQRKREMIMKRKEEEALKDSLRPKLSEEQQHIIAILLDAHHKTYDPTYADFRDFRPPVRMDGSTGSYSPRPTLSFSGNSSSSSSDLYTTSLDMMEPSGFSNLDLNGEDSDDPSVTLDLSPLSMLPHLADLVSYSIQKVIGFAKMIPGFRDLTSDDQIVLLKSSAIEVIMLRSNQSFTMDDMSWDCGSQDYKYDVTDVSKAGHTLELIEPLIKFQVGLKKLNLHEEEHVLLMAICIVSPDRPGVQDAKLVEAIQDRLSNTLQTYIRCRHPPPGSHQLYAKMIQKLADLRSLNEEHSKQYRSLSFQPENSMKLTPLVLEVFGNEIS
Method: Full-length recombinant rat receptor was expressed in E. coli BL21 (DE3) Codon Plus RIL cells and purified to homogeneity using two different column chromatography systems. The first system was a nickel affinity resin that utilizes the C-terminal histidine tag on this protein. The protein that was eluted from this resin was further purified using ion exchange chromatography (S-Sepharose Fast Flow). Aliquots of the purified protein were quick frozen in liquid nitrogen and stored at −80° C. until use. For use in binding assays, the protein was diluted in TEDK50 (50 mM Tris, 1.5 mM EDTA, pH7.4, 5 mM DTT, 150 mM KCl) with 0.1% Chaps detergent. The receptor protein and ligand concentration was optimized such that no more than 20% of the added radiolabeled ligand was bound to the receptor.
The following day, 100 mcl of hydroxylapatite slurry (50%) was added to each tube and mixed at 10-minute intervals for 30 minutes. […] After the final wash, the pellets were transferred to scintillation vials containing 4 ml of Biosafe II scintillation cocktail, mixed and placed in a scintillation counter. Total binding was determined from the tubes containing only radiolabeled ligand.

[5] = test system: vitamin D-deficient rats; test: Intestinal calcium transport (everted gut sac method); type: in vivo, rat; details: rats on 0.02% Ca diet, four consecutive ip doses
Method: as §1

[6] = 780 pmol/day for 4 consecutive days, ip, rats on 0.02% Ca diet
[7] = four consecutive ip doses, rats on 0.02% Ca diet

For `C=C1/C(=C\C=C2/CCC[C@]3(C)[C@@H]([C@H](C)CCCC(C)(C)O)CC[C@@H]23)C[C@@H](O)C[C@@H]1O` [1α,25-dihydroxyvitamin D3, reference compound], the EC50 ([1]; FIG. 2 experiment) was 4 nM, the EC50 ([1]; FIG. 7 experiment) was 3 nM and the EC50 [2] was 0.2 nM. The “mobilization of bone calcium (serum calcium)” value (“mobilization of bone calcium” for short) ([3]; 87 pmol, four consecutive ip doses, FIG. 8) was “significant increases in serum calcium” and the “mobilization of bone calcium” value [3, 6] was “significant increases in serum calcium”.

In the case of `C=C1CC/C(=C\C=C2/CCC[C@]3(C)[C@@H]([C@@H](C)CCCC(C)(C)O)CC[C@@H]23)C[C@H]1O` [1-desoxy-2MD, (20S)-25-hydroxy-2-methylene-19-nor-vitamin D3], the Ki ([4]; FIG. 1 experiment (1-desoxy-2MD vs 1,25(OH)2D3)) is reported as 0.1 nM, the EC50 ([1]; Homo sapiens, HL-60, 96 h, FIG. 2 experiment) is reported as 10 nM and the EC50 [2] is reported as 4 nM. For the same compound, the “times less potent than 1,25(OH)2D3 in increasing transcription of the 24-hydroxylase gene” value ([2]; bone cells) was “about 20 times”, the “mobilization of bone calcium” value [3, 6] was “little or no mobilization of bone calcium” and the “dose until which little to no bone calcium mobilization activity is observed” value [3, 7] was no less than 7020 pmol/rat. For the same compound, the “times less potent than 1,25(OH)2D3 in promoting intestinal calcium transport” value [5] was “about 20 times”.

`C=C1CC/C(=C\C=C2/CCC[C@]3(C)[C@@H]([C@H](C)CCCC(C)(C)O)CC[C@@H]23)C[C@H]1O` [1D-MJ, (20R)-25-hydroxy-2-methylene-19-nor-vitamin D3] was tested, and the Ki ([4]; FIG. 6 experiment (1D-MJ vs 1,25(OH)2D3)) was 4 nM, the EC50 ([1]; Homo sapiens, HL-60, 96 h, FIG. 7 experiment) was 300 nM and the “mobilization of bone calcium” value [3, 6] was “little or no mobilization of bone calcium”. For the same compound, the “dose until which little to no bone calcium mobilization activity is observed” value [3, 7] was no less than 7020 pmol/rat and the “times less potent than 1,25(OH)2D3 in promoting intestinal calcium transport” value [5] was “about 10 times”.
